The source made the active and inactive calls. Rule as the data show it, for most assays here: actives have a measured EC50 and inactives only a lower limit.
How the values were obtained:
Protein skinhead-1 = molecular target: T1, Protein skinhead-1 (Caenorhabditis elegans, UniProt P34707); assay type: functional
T1 sequence (P34707 whole entry): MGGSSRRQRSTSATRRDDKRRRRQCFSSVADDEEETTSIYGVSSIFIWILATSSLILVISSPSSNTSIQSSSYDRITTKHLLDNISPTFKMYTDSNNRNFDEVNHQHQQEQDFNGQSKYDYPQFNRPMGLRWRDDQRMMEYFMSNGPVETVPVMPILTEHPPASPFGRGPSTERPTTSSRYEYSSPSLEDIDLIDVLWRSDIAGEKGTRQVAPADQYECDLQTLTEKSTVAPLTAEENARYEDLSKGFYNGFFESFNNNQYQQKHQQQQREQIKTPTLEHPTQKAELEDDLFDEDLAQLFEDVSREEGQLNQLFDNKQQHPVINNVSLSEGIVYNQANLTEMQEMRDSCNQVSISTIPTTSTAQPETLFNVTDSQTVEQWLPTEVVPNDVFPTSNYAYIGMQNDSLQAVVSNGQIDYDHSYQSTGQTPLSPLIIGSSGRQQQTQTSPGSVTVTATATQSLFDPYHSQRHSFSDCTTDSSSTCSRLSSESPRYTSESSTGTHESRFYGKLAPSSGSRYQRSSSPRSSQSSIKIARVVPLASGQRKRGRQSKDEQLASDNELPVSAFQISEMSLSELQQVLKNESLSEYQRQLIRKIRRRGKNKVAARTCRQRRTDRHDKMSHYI

[1] = NIH-3T3 fibroblast cytotoxicity, dose response, cytotoxicity control, cell-based, fluorescence, Alamar Blue, secondary assay (AID 2327); assay type: functional;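 also: NIH-3T3 mouse fibroblasts cultured with fluconazole at 8 µg/mL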
[2] = HEp-2 cell cytotoxicity, dose response, cytotoxicity control for RSV inhibitor project, HTS (AID 2410); assay type: functional; conditions: human respiratory syncytial virus
[3] = Luminescence Cell-Based Dose Response HTS to Identify Activators of Luciferase Translation or Activity in H4 […] Cells. [Related pubchem assays: 1829 (Project Summary), 1814 (Primary HTS)]; assay type: functional
H4 = assay: Luminescence Cell-Based Dose Response HTS to Identify Activators of 5'UTR Stem-Loop Driven Prion Protein mRNA Translation in H4 Neuroglioblastoma Cells. [Related pubchem assays: 1829 (Project Summary), 1814 (Primary HTS)]; assay type: functional; conditions: Homo sapiens
[4] = Luminescence Cell-Based Dose Confirmation HTS to Identify Activators of 5'UTR Stem-Loop Driven Alpha-Synuclein mRNA Translation in H4 Neuroglioblastoma Cells. [Related pubchem assays: 1829 (Project Summary), 1814 (Primary HTS)]; assay type: functional
[5] = molecular target: T2, Rac GTPase-activating protein 1 (Homo sapiens, UniProt Q9H0H5); assay: MgcRacGAP GTPase-activating activity inhibitors, confirmation, biochemical, ADP Hunter fluorescence, primary and confirmatory (AID 624330); assay type: functional
T2 sequence (Q9H0H5 whole entry): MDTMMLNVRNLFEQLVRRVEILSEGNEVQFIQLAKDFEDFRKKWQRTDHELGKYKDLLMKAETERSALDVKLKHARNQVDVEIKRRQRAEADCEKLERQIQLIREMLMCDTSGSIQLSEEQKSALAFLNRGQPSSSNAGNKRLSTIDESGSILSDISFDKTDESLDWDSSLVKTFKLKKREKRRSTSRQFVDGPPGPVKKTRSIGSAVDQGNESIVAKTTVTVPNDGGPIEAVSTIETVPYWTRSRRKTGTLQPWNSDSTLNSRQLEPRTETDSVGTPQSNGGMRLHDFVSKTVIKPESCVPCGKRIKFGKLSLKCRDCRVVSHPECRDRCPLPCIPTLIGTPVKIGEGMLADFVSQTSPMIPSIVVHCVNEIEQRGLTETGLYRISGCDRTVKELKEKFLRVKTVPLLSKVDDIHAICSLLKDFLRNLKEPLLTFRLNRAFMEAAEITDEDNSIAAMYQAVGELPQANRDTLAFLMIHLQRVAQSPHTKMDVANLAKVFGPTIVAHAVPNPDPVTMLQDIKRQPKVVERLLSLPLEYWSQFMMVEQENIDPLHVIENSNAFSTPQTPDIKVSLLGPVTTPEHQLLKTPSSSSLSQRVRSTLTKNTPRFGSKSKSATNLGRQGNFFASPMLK

[6] = molecular target: Luciferin 4-monooxygenase (Photinus pyralis, UniProt P08659); assay: firefly luciferase enzyme inhibitors, dose response, biochemical, luminescence (AID 1891)
[7] = Luminescence Cell-Based Dose Confirmation HTS to Identify Inhibitors of Platelet Dense Granule Release. [Related pubchem assays: 1663 (Primary HTS), 1678 (Summary of Project)]; assay type: functional
[8] = inhibitors of firefly luciferase expression or activity, dose response, H4 neuroglioma cells, luminescence (AID 1990); assay type: functional, cell-based
[9] = Luminescence Cell-Based Dose Response HTS to Identify Inhibitors of 5'UTR Stem-Loop Driven Prion Protein mRNA Translation in H4 Neuroglioblastoma Cells. [Related pubchem assays: 1827 (Project Summary), 1813 (Primary HTS)]; assay type: functional
[10] = inhibitors of SNCA 5'UTR-driven reporter translation, confirmation, H4 neuroglioma cells, luminescence (AID 1988); assay type: functional, cell-based

Luciferin 4-monooxygenase, sequence (P08659 whole entry): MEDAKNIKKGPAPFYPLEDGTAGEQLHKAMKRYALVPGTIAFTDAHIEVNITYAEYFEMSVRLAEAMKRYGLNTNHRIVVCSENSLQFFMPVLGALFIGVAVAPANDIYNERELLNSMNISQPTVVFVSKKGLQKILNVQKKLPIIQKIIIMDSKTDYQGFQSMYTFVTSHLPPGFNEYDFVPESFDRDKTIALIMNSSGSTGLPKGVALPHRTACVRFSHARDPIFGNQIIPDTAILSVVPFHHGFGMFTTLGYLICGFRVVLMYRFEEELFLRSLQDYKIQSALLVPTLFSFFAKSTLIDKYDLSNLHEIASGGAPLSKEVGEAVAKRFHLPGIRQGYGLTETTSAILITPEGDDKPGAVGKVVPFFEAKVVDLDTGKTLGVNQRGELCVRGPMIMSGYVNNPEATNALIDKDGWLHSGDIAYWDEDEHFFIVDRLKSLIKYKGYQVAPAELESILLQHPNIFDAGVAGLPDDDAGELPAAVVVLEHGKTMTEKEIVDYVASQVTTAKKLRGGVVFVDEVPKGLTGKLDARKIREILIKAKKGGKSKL

CCOC(=O)C1(C)C(N=Nc2ccc(Cl)cc2)=C(O)C(=O)N1c1ccccc1 (stereo unspecified)
IC50 (Protein skinhead-1): > 100 µM (inactive)

NC(Cc1nc(-c2ccc(Br)cc2)cs1)=NO
EC50 [1]: > 150 µM (inactive)

O=C(NCCOc1ccc(Cl)cc1)c1ccc2ccccc2n1
IC50 (Protein skinhead-1): > 100 µM (inactive)
CC50 [2]: 20.9 µM (active)

COc1ccc2nc(NNC(=O)c3cc(=O)c4ccccc4o3)sc2c1
EC50 [3]: 24.4 µM (active)
EC50 (H4): 17.4 µM (active)
EC50 [4]: 40.6 µM (active)

CCCc1ccc(Oc2cc(Cl)nc(N)n2)cc1
EC50 [3]: 11.8 µM (active)
EC50 (H4): 72 µM (active)
EC50 [4]: 8.77 µM (active)

CC(Sc1nncn1C)C(=O)Nc1nnc(-c2ccccc2)s1 (stereo unspecified)
EC50 [3]: 25 µM (active)
EC50 (H4): 17.5 µM (active)
EC50 [4]: 19.1 µM (active)

COc1cc2sc3cc(NCc4ccc(C)o4)ccc3c(=O)c2cc1OC
IC50 (Protein skinhead-1): > 100 µM (inactive)

CCCn1c(N)c(C(c2ccc(OC)cc2)N2CCN(c3ccccc3)CC2)c(=O)[nH]c1=O (stereo unspecified)
IC50 (Protein skinhead-1): > 100 µM (inactive)

COc1ccc(C2CC(c3ccc4ccccc4c3)=NN2C(=O)CN2CCC(C(N)=O)CC2)cc1 (stereo unspecified)
EC50 [3]: 18.1 µM (active)
EC50 (H4): 16.5 µM (active)
EC50 [4]: 15.6 µM (active)

c1ccc(NCc2nc(-c3ccccc3)no2)cc1
EC50 [3]: 21.4 µM (active)
EC50 (H4): 15.8 µM (active)
EC50 [4]: 3.25 µM (active)

N#CC1(Nc2ccc(-c3ccc(NC4(C#N)CCCC4)cc3)cc2)CCCC1
IC50 [5]: 10.3 µM (active)

CCCCn1c(N)c(N(CCC(C)C)C(=O)C2CC(=O)N(c3ccc(OC)cc3OC)C2)c(=O)[nH]c1=O (stereo unspecified)
EC50 [6]: > 112 µM (not active)
EC50 [7]: > 112 µM (not active)

Nc1ccc(N2CCOCC2)c(Cl)c1
IC50 [5]: 38.2 µM (active)

FCCCOc1ccc(-c2nccc(-c3ccccn3)n2)cc1
IC50 (Protein skinhead-1): 17.9 µM (active)

CSc1nc(N(C)NC(=O)c2ccc(F)cc2)c2ccccc2n1
EC50 [8]: 10.6 µM (active)
EC50 [9]: 0.258 µM (active)
EC50 [10]: < 0.195 µM (active)

NS(=O)(=O)c1ccc(Nc2nc(-c3ccc(O)cc3)cs2)cc1
IC50 [5]: 19.9 µM (active)

CC(=O)Nc1cccc(Oc2cc(C#N)c(C#N)cc2N2CCCCCC2)c1
EC50 [8]: 14.6 µM (active)
EC50 [9]: > 120 µM (not active)
EC50 [10]: > 120 µM (not active)

COc1ccc(-c2cc(C(=O)Nc3cccc(Cl)c3)no2)cc1
EC50 (H4): 0.184 µM (active)

Cc1ccc(C(=O)CC(=O)c2ccccc2)cc1
EC50 [3]: 1.75 µM (active)
EC50 (H4): > 120 µM (not active)
EC50 [4]: 5.35 µM (active)

O=C(Nc1ccccc1)c1cnc2ccccc2n1
EC50 [6]: > 112 µM (not active)
EC50 [7]: > 112 µM (not active)

O=C(Nc1ccccc1Oc1ccccc1)c1cccs1
IC50 (Protein skinhead-1): > 100 µM (inactive)

C/C=C/c1ccc(OCCCCN2CCN(CC)CC2)c(OC)c1
IC50 [5]: 82 µM (active)

Cc1nc(S)c(C#N)c(C)c1CCC#N
EC50 [7]: > 112 µM (not active)

C/C(=C\c1ccco1)CN1CCC(N2CCC(C(=O)N3CCOCC3)CC2)CC1
EC50 [3]: 15.5 µM (active)
EC50 (H4): > 120 µM (not active)
EC50 [4]: 11.2 µM (active)

Cc1cc(C)cc(OCc2ccc(C(=O)N3N=C(C(F)F)CC3(O)C(F)F)o2)c1 (stereo unspecified)
EC50 [1]: 120 µM (active)
